Values of other authors, collected in patent US9622997B2, “Methods for treating insomnia” (Lynn Health Science Institute, Inc., priority 2012, dated 2017).
Read-outs that look alike come from different tables or passages of the source.

How the values were obtained:
[1] = tested on: 2 hour phase-advance study population; details: ↓ decrease compared to placebo, cited from earlier work
[2] = tested on: 3 hour phase-advance study population; details: 6 mg, cited from earlier work
[3] = tested on: 4 hour phase-advance study population; details: 10 mg, cited from earlier work
[4] = tested on: 3 hour phase-advance study population; parameters: TST: unit not given here; details: cited from earlier work; for TST: ↑ increase compared to placebo; for WASG: ↓ decrease compared to placebo
[5] = tested on: 4 hour phase-advance study population; details: 10 mg, cited from earlier work; remark: listed apart in the source
[6] = recent study; cited from earlier work
[7] = tested on: First-night effect (no PA) study population; details: cited from earlier work; for TST: ↑ increase compared to placebo; for WASG: ↓ decrease compared to placebo, NS
[8] = tested on: 2 hour phase-advance study population; details: cited from earlier work; for TST: ↑ increase compared to placebo; for WASG: ↓ decrease compared to placebo

CN1C(=O)C(O)N=C(c2ccccc2)c2cc(Cl)ccc21 (stereo not drawn) [Temazepam]
WASG ([1]; NS, temazepam 15 mg): ↓ 7.0^NS min

CN(C)CCC=C1c2ccccc2COc2ccccc21 [Doxepin]
TST ([2]; ↑ increase compared to placebo): ↑ 51.1 | SOL ([2]; ↓ decrease compared to placebo): ↓ 15.9 | WASG ([2]; ↓ decrease compared to placebo): ↓ 40.0 min

Cc1ccc(-c2nc3ccc(C)cn3c2CC(=O)N(C)C)cc1 [Zolpidem]
WASG ([1]; zolpidem 10 mg, listed as zolpidem): 9.4 min | WASG ([1]; zolpidem 10 mg): ↓ 9.4 min | TST ([3]; ↑ increase compared to placebo): ↑ 52.8 | WASG ([3]; ↓ decrease compared to placebo): ↓ 35.1 min | TST ([4]; 10 mg): ↑ 35.7 | TST ([4]; 15 mg): ↑ 37.3 | TST ([4]; NS, 5 mg): ↑ 35.6^NS | TST ([4]; NS, 20 mg): ↑ 12.8^NS | WASG ([4]; 20 mg): ↓ 32.3 min | WASG ([4]; NS, 5 mg): ↓ 22.5^NS min | WASG ([4]; NS, 10 mg): ↓ 31.2^NS min | WASG ([4]; NS, 15 mg): ↓ 26.9^NS min | TST ([5]; ↑ increase compared to placebo): ↑ 47.8 | WASG ([5]; ↓ decrease compared to placebo): ↓ 24.7 min | effect on sleep related GER (acid contact time) [6]: markedly prolonging acid contact time

CCC(=O)NCC[C@@H]1CCc2ccc3c(c21)CCO3 [Ramelteon]
TST ([7]; 8 mg): ↑ 17.1 | TST ([7]; 16 mg): ↑ 13.4 | WASG ([7]; 8 mg): ↓ 5.0^NS min | WASG ([7]; 16 mg): ↓ 2.5^NS min

CC(=O)N(C)c1cccc(-c2ccnc3c(C(=O)c4cccs4)cnn23)c1 [Indiplon]
TST ([8]; 10 mg): ↑ 11.6 | TST ([8]; 20 mg): ↑ 20.6 | WASG ([8]; 20 mg): ↓ 7.4 min | WASG ([8]; NS, 10 mg): ↓ 1.2^NS min
